Data: PMC8667948, “Mechanism of biotin carboxylase inhibition by ethyl 4-[[2-chloro-5-(phenylcarbamoyl)phenyl]sulphonylamino]benzoate” (Journal of Enzyme Inhibition and Medicinal Chemistry, 2021)
Read-outs that look alike come from different tables or passages of the source.

Key:
BC = system: BC; parameters: method as in PMID 4922289; conditions: % activity of biotin; cited from earlier work
biotin carboxylase (BC) [1] = target: T1, biotin carboxylase (BC) (Escherichia coli, UniProt P24182); experiment: Multiple inhibition assay (Yonetani-Theorell) on BC; assay type: biochemical; conditions: aminooxazole varied 0.2-3.2 µM at fixed SABA1 0, 75, 150 µM; ATP 0.2 mM, biotin 40 mM; intersecting pattern
T1 construct: His tag (N); made in house
Description: To determine the multiple inhibition pattern with respect to ATP, aminooxazole was varied from 0.2 µM to 3.2 µM. SABA1 was held at fixed concentrations of 0.0 µM, 75 µM, or 150 µM. ATP and biotin were held constant at 0.2 mM and 40 mM, respectively. To determine the multiple inhibition pattern with respect to biotin, desthiobiotin was varied from 1.0 mM to 20 mM. SABA1 was held at fixed concentrations of 0.0 µM, 75 µM, or 150 µM. ATP and biotin were held constant at 0.2 mM and 40 mM, respectively.
Multiple inhibition data were fitted to Equation (3) where v is the experimentally determined velocity, V is maximal velocity, L and J are the concentration of the two inhibitors, KL and KJ are the apparent inhibition constants of those respective inhibitors, and α is the interaction factor of the two inhibitors. (3) v=V/1+L/KL+J/KJ+LJ/αKLKJ
Competitive inhibition means that binding of the inhibitor and the substrate to the enzyme are mutually exclusive. […] To determine if SABA1 can bind in the ATP binding site, biotin binding site or both, multiple inhibition analysis was performed as described by Yonetani and Theorell[42]. Multiple inhibition analysis is used to define the topological relationship between two different enzyme inhibitors. Initial velocities are measured while one inhibitor is varied against fixed increasing concentrations of the second inhibitor. […]

[2] = system: efflux compromised E. coli (ΔtolC::tet); conditions: cited from earlier work
[3] = system: efflux compromised P. aeruginosa strain PAO397; parameters: method as in PMID 26169404; conditions: cited from earlier work
[4] = target: T2, Acetyl-CoA carboxylase (ACC) (Escherichia coli, UniProt P24182); experiment: ACC assay, ATP varied (BC:BCCP:CT 1:2:1); assay type: biochemical; conditions: ATP varied 1.0-16 µM, acetyl-CoA 0.20 mM, SABA1 0, 50, 100 µM
T2 construct: His tag (N); made in house
Description: As stated above, the components of ACC were purified separately. Purified BC, BCCP, and CT were combined in a 1:2:1 molar ratio and allowed to equilibrate for 1 h prior to assaying ACC. To determine the inhibition pattern versus ATP, ATP was varied from 1.0 µM to 16 µM. SABA1 was held at fixed concentrations of 0.0 µM, 50 µM, or 100 µM. Acetyl-CoA was held constant at 0.20 mM. The reaction was started by the addition of enzyme.
Non-competitive inhibition data were fitted to Equation (2) where v is the experimentally determined velocity, V is maximal velocity, A is substrate concentration, Km is the Michaelis constant, I is inhibitor concentration and Kii is the inhibition constant for the intercept and Kis is the inhibition constant for the slope. (2) v=VA/Km(1+I/Kis)+A(1+I/Kii)

E. coli ACC = system: E. coli ACC; parameters: method as in PMID 26169404; conditions: cited from earlier work
biotin carboxylase (BC) [5] = target: T1, biotin carboxylase (BC); experiment: Biotin carboxylase inhibition assay, ATP or biotin varied (pyruvate kinase/lactic dehydrogenase coupled); assay type: biochemical; conditions: SABA1 0, 75, 150 µM
Description: (§1) For inhibition studies that varied ATP or biotin, initial velocities were measured as previously reported. In brief, pyruvate kinase and lactic dehydrogenase were used to couple ADP production to NADH oxidation, which can be measured spectrophotometrically at 340 nm. For inhibition studies varying ADP, activity was determined by following the production of inorganic phosphate (Pi) using the EnzChek® Phosphate Assay Kit (Molecular Probes) according to the manufacturer’s protocol. In brief, purine nucleoside phosphorylase converts 2-amino-6-mercapto-7-methylpurine riboside to ribose 1-phosphate and 2-amino-6-mercapto-7-methylpurine in the presence of Pi. This reaction is monitored at […][32]. Kinetic data were collected on a Cary60 UV-Vis spectrophotometer (Agilent Technologies)
To determine the inhibition pattern versus ATP, ATP was varied from 0.05 mM to 1.0 mM. SABA1 was held at fixed concentrations of 0.0 µM, 75 µM, or 150 µM. Biotin was held constant at 40 mM. […]
Data for inhibition studies varying ATP or biotin were analysed by nonlinear regression using the programs of Cleland[33]. Competitive inhibition data were fitted to Equation (1) where v is the experimentally determined velocity, V is maximal velocity, A is substrate concentration, Km is the Michaelis constant, I is inhibitor concentration and Kis is the inhibition constant for the slope. […]

biotin carboxylase (BC) [6] = target: T1, biotin carboxylase (BC); experiment: Biotin carboxylase inhibition versus ADP (EnzChek Pi assay); assay type: biochemical; conditions: ADP varied 0.19-19 µM; ATP 0.6 mM; biotin 40 mM; SABA1 100 µM; fit to Equation (5)
Description: as §1
To determine the inhibition pattern versus ADP using the Pi assay, ADP was varied from 0.19 µM to 19 µM. ATP was held constant at 0.6 mM, biotin was held constant 40 mM, and SABA1 was held constant at 100 µM. Each reaction cocktail was incubated in the presence or absence of SABA1 for 10 min. The reaction was started by addition of biotin.
Data for inhibition studies varying ADP were analysed by nonlinear regression using the program Enzfitter[34]. […]

SMILES | activity as slow alternate substrate, relative to biotin (BC) [%] | α value (interaction factor of the two inhibitors) (biotin carboxylase (BC) [1]) | MIC [2] [µM] | prolongs the doubling time [3] [%] | Ki ([4]; read-out: Kii, non-competitive inhibition versus ATP) [µM] | Ki ([4]; read-out: Kis, non-competitive inhibition versus ATP) [µM] | IC50 (E. coli ACC) [µM] | Ki (biotin carboxylase (BC) [5]; ATP varied 0.05-1.0 mM, biotin constant 40 mM (subsaturating), read-out: Kis, competitive inhibition versus ATP) [µM] | Ki (biotin carboxylase (BC) [5]; biotin varied 20-200 mM, ATP constant 0.2 mM (subsaturating), read-out: Kis, competitive inhibition versus biotin) [µM] | Ki, uncompetitive inhibition versus ADP (biotin carboxylase (BC) [6]) [µM]
C[C@@H]1NC(=O)N[C@@H]1CCCCCC(=O)O [Desthiobiotin] | 0.2 |  |  |  |  |  |  |  |  | 
CCOC(=O)c1ccc(NS(=O)(=O)c2cc(C(=O)Nc3ccccc3)ccc2Cl)cc1 [SABA1, ethyl 4-[[2-chloro-5-(phenylcarbamoyl)phenyl]sulfonylamino]benzoate] |  | 0.6 | 0.45 to 0.9 | 30 | 23.3 ± 4.4 | 96.3 ± 31.6 | 4 | 242 ± 32 | 142 ± 12.3 | 10.3 ± 0.1
